In PMC7996082, “The translocator protein ligands as mitochondrial functional modulators for the potential anti-Alzheimer agents” (Journal of Enzyme Inhibition and Medicinal Chemistry, 2021):

What was measured:
[1] = system: acute AD model mice (Aβ1-42 ICV injected ICR mice); assay: Y-maze spontaneous alternation test in acute AD model mice; assay type: in vivo, mouse; conditions: 30 mg/kg daily, 6 days; for Recovery of Y-maze spontaneous alternations: i.p.
Description: The acute AD mice model was prepared by administration of Aβ1-42 solution (10% DMSO/90% PBS) to male ICR mice (6 weeks old, 30 − 33 g) via intracerebroventricular (ICV) injection (Aβ1-42 dose: 500 pmol/mouse) as described previously. The wild type mice (B6C3F1) and double APP/PS1 transgenic mice (Tg AD mice model; APPswe/PSEN1dE9) were purchased from Jackson Laboratory (Bar Harbour, ME, USA). The Tg AD model mice were 11 months old at the beginning of the behaviour test, and were housed for 1 month in a room under controlled temperature and fed ad libitum. The behaviour tests were conducted during daytime in air-controlled and soundproof experiment room. The animal experiments were abided by the guidelines of the Institutional Animal Care and Use Committee of Korea Institute of Science and Technology.
To the mice of the acute AD model (n = 7 per group), each test compound (test compound in 20% cyclodextrin, 30 mg/kg) was […] injected daily for 6 days. The Y-maze spontaneous alternation test was performed 1 day after the administration of each test compound. The Y maze was made of three equally spaced black plastic arms (40 L × 10 W × 12 H cm) positioned at an equal angle. Each mouse was placed at the end of one arm and allowed to move freely through the maze for 8 min, and the sequence of arm entries was recorded. The arm entry of the mouse was counted when the all four limbs were within an arm. A set of entries into all three arms is considered as a spontaneous alternation. The spontaneous alternation (%) was calculated by the following equation: Spontaneous alternation (%)=100x[number of alternations/(total number of arm entries – 2)]
We evaluated in vivo activity of 7 and 14 in an acute AD mouse model. The acute AD model mice were generated by the administration of Aβ1-42 peptide (500 pmol) according to the previously reported method, and each compound (30 mg/kg daily) was administered intraperitoneally for 6 days. Piracetam (30 mg/kg daily) was also administered in parallel for comparison. The Y-maze spontaneous alternation tests were performed to measure the recovery of learning and memory deficit in acute AD model mice[38]^,[39]. […] We believe that the treatment of 7 was beneficial for ameliorating Aβ-induced cognitive impairments.

[2] = target: T1, CYP2C9 (Homo sapiens, UniProt P11712); assay: CYP inhibition assay (Vivid CYP450 screening kit); assay type: in vitro ADME; conditions: 10 μM compound
T1 construct: purchased Invitrogen, Madison, WI, USA
T1 sequence (P11712 whole entry): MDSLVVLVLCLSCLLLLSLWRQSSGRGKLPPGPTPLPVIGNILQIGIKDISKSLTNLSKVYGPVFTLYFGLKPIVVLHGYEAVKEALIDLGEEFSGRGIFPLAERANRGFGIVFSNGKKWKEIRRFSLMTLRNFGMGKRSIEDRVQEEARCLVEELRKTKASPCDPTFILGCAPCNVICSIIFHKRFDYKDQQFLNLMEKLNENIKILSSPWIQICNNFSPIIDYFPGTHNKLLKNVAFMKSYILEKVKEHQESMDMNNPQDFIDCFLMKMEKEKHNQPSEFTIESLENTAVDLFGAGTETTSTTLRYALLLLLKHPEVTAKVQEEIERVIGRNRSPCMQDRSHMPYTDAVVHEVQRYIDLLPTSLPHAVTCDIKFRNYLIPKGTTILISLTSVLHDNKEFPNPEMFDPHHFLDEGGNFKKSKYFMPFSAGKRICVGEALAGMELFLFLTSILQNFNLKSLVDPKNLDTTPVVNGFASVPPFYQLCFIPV
Description: Human CYP450 (CYP1A2, 2D6, 2C9, 2C19, and 3A4) activities were determined by using the Vivid® CYP450 screening kit (Invitrogen, Madison, WI, USA) in a clear 96-well plate. Five positive controls were used as 10 mM solutions in MeCN for five different CYP450 enzymes: CYP1A2 (α-naphthoflavone), CYP2D6 (quinidine), CYP2C9 (sulfaphenazole), CYP2C19 (lansoprazole), and CYP3A4 (ketoconazole). Each sample (test compounds, positive inhibition controls, and solvent controls) was added into each well with the Master Pre-Mix [CYP450 BACULOSOMES® Reagent (recombinant human CYP450 isozyme and rabbit NADPHP450 reductase) and Regeneration System (3.3 mM glucose-6-phosphate and 0.3 U/ml glucose-6-phosphate dehydrogenase in 100 mM potassium phosphate, pH 8.0)]. The mixture was incubated for 5 min at 37 °C, and the Vivid® CYP substrates and 0.1 mM NADP^+ buffer were added to initiate the CYP450 enzyme reaction. The % remaining activities of CYP450 were measured after 20 min by using a fluorescent plate reader (Flexstation® 3, Molecular Devices, USA).

[3] = target: T2, hERG channel (Homo sapiens, UniProt Q12809); assay: hERG inhibition assay (automated patch-clamp, CHO-K1 Tet-On hERG cells); assay type: cell-based; conditions: for hERG inhibition (in words): authors' grading of Table 6; for IC50: patch-clamp, ± SD
T2 construct: host or cells: CHO-K1 Tet-On hERG cells
T2 sequence (Q12809 whole entry): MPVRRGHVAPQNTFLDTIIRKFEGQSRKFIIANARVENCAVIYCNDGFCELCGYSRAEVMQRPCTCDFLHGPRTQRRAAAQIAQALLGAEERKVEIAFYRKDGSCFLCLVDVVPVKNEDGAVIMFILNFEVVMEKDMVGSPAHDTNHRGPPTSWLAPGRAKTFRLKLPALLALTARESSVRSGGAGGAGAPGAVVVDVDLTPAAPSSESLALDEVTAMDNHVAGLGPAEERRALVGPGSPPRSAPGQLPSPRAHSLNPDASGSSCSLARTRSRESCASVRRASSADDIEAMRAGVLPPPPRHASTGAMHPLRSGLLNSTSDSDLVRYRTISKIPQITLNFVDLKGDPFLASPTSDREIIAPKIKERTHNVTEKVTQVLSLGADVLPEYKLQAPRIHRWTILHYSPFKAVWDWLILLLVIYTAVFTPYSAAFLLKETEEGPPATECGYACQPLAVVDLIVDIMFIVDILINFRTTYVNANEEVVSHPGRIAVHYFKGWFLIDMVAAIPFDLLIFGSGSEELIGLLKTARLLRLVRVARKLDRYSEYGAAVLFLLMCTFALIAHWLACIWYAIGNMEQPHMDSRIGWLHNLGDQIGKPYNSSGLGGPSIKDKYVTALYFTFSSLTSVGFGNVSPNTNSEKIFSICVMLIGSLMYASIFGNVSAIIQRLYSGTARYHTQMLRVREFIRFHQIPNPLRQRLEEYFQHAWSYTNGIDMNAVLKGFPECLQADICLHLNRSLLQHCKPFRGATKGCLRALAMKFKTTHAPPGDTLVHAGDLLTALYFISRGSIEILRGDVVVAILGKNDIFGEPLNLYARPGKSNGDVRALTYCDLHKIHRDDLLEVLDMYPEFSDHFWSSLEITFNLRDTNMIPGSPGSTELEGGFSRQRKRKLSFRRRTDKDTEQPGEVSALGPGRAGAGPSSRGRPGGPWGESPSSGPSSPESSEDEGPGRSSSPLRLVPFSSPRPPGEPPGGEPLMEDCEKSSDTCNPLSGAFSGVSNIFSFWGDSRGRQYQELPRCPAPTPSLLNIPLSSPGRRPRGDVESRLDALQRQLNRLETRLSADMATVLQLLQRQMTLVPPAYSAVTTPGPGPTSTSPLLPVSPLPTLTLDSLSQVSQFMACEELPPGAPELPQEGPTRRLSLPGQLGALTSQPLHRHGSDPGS
Description: For automated patch-clamp NPC-16 Patchliner (Nanion Technologies, München, Germany) recordings, CHO-K1 Tet-On hERG cells (IonGate Biosciences GmbH, Frankfurt, Germany) were plated into 100-mm cell culture dishes. Whole-cell currents were recorded with the intracellular solution containing: 50 mM KCl, 60 mM KF, 10 mM NaCl, 2 mM MgCl2, 20 mM EGTA and 10 mM HEPES (pH 7.2), and with the extracellular solution containing: 140 mM NaCl, 4 mM KCl, 2 mM CaCl2, 1 mM MgCl2, 5 mM Glucose and 10 HEPES (pH 7.4). To assist stable seal formations, the seal enhancer containing: 80 mM NaCl, 3 mM KCl, 35 mM CaCl2, 10 mM MgCl2 and 10 mM HEPES (pH 7.4) was used only at the seal formation step. Prior to the whole-cell recordings, the external seal enhancing solution was exchanged to the extracellular solution described above. hERG channel currents were recorded using the parallel EPC-10 patch-clamp amplifiers (HEKA Elektronik, Lambrecht/Pfalz, Germany), and low-pass filtered (10 kHz) with a 4-pole Bessel filter. Cell suspension and patch solutions were automatically added onto the four recording wells in the microfabricated disposable chip (NPC-16 Chip, Nanion Technologies, München, Germany). To obtain the inhibitory constants, hERG tail currents were evoked by repolarizing steps to −50 mV for 500 ms preceded by a 500-ms depolarisation potential of +20 mV at a holding potential of −80 mV with a 20-s sweep interval. Whole-cell currents were acquired and digitised at 5 kHz using Patchmaster (HEKA Elektronik, Lambrecht/Pfalz, Germany). The extracellular solution was exchanged to the extracellular solution containing each blocker via four pipette tips of NPC-16 Patchliner using a 4-fold volume of solution (40 µL) with a speed of 4 µL/s, and the exchanged blocker solution was applied for 100–200 s to the patch-clamped cells until blocker binding had reached equilibrium by monitoring hERG tail currents. Whole-cell recordings were analysed using the Patchmaster/Fitmaster (HEKA Elektronik, Lambrecht/Pfalz, Germany), IGOR Pro (WaveMetrics Inc., Portland, OR, USA), and the GraphPad Prism 4.0 (GraphPad Software, Inc., La Jolla, CA, USA) software.

[4] = Liver microsomal stability; assay type: in vitro ADME; conditions: human, liver microsomes, 1 µM compound, 0.5 mg/mL microsomes, 30 min, 37 °C; read-out: Human Liver Microsomal Stability (% remaining after 30 min)
Description: Liver microsomes (human, dog, rat, and mouse; 0.5 mg/mL) were incubated with 1 µM of each test compound in the presence of potassium phosphate buffer (PPB) for 5 min at 37 °C. A solution of the NADPH regeneration system (#44332000, Oriental Yeast Co., Japan) was added to begin metabolic reactions of liver microsomes. The resulting mixtures were incubated for 30 min at 37 °C, and the reaction was terminated by the addition of a cold MeCN solution containing an internal standard (chlorpropamide). The mixture was separated by centrifugation (14,000 rpm for 5 min at 4 °C), and the supernatant was analysed by LC-MS/MS (Shimadzu Nexera XR system and TSQ vantage; Thermo Scientific).

Structure (SMILES)	Y-maze activity in acute AD model (in words) [1]	CYP450 (% remaining Activity at 10 μM) CYP2C9 [2]	hERG inhibition (in words) [3]	IC50 [3]	remaining at 0.5 h, 1 µM [4]	Recovery of Y-maze spontaneous alternations [1]
CCOc1ccc(-n2c(SCC(=O)NC3CCN(C)CC3)nc3sc4c(c3c2=O)CCN(C(C)=O)C4)cc1 [Compound 30]	did not show significant activity	93.0%	low hERG inhibition	12.3 ± 1.25 µM	99.1%	–
CCOc1ccc(-n2c(SCC(=O)Nc3ccc(OC)c(OC)c3)nc3sc4c(c3c2=O)CCN(C(C)=O)C4)cc1 [Compound 7]	–	72.5%	–	19.5 ± 4.43 µM	49.6%	76%
CCOc1ccc(-n2c(SCC(=O)N(C)Cc3ccccc3)nc3sc4c(c3c2=O)CCN(C)C4)cc1 [Compound 50]	did not show significant activity	66.4%	low hERG inhibition	10.6 ± 0.97 µM	73.1%	–
CCOc1ccc(-n2c(SCC(=O)NCc3ccccc3)nc3sc4c(c3c2=O)CCN(C(C)=O)C4)cc1 [Compound 31]	–	51.1%	low hERG inhibition	8.8 ± 2.36 µM	32.7%	107%
CCOc1ccc(-n2c(SCC(=O)NCc3ccccc3)nc3sc4c(c3c2=O)CCN(C)C4)cc1 [Compound 49]	did not show significant activity	99.6%	low hERG inhibition	15 ± 4.24 µM	87.9%	–
CCOc1ccc(-n2c(SCC(=O)N3CCN(c4ccccc4)CC3)nc3sc4c(c3c2=O)CCN(C(C)=O)C4)cc1 [Compound 44]	–	84.4%	low hERG inhibition	8.9 ± 0.22 µM	15.3%	98%
